In one data set the test system is Candida glabrata. The conditions noted are these: pharmacodynamic target used for PTA; cited from earlier work. From the text: (§1) This study used Matlab software for simulations. The simulated data were based on the virtual patients with different ALB levels (25, 30, 37, 45, and 50 g/liter) at various dosage regimens (50-, 70-, 100-, 150-, and 200-mg maintenance dose). The median ALB level of the research population was 37 g/liter. We generated 1,000 virtual patients whose pharmacokinetic parameters were randomly assigned according to the distributions with the median of CL, θALB-CL, and CL interindividual variations and their calculated standard deviations from bootstraps (Table 2) for the simulations. AUC was calculate ...

In the next data set the test system is Candida parapsilosis. The conditions noted are these: pharmacodynamic target used for PTA; cited from earlier work.
Text: as §1

The subject of another data set is Candida albicans. The conditions noted are these: pharmacodynamic target used for PTA; cited from earlier work.
Text: as §1

For data set [1] the following is noted: under normal plasma protein levels; cited from earlier work. From the text: Kurland et al. ([26]) found a negative correlation between hypoalbuminemia and elimination rate constant. […] They also identified total bilirubin (TBIL) as another covariate. ALB and TBIL levels were collectively found to affect CL of caspofungin.
Data set [2] is described as follows: Population pharmacokinetics of caspofungin in HTx and non-HTx patients (plasma LC-MS/MS, NONMEM two-compartment model). The conditions noted are these: for clearance / Cmax: human, iv; for Cmax: read-out: Cmax (peak plasma concentration). The format is in vivo, human (patients). The source says: This was a prospective, single-center, open-label study. We recruited patients who underwent HTx at the Guangdong Provincial People’s Hospital in the SICU from July 2019 to July 2021. The inclusion criteria were: (i) patients aged 18 years or older who received caspofungin in SICU and accepted cardiac surgery and (ii) acceptability of multiple blood sampling. Patients who were allergic to caspofungin, those receiving drugs that can affect the PK of caspofungin, and those who could not receive multiple blood sampling were excluded. Patients who underwent HTx in SICU were recruited as the HTx group. Patients who never received HTx but underwent cardiac surgery and being in SICU were recruited in the control group. This study was approved by the Ethics Committee of Guangdong Provincial People’s Hospital, Guangdong Academy of Medical Sciences (approval number GDREC2018355(R1)H).
Caspofungin (Laboratoires Merck Sharp & Dohme Chibret, France) was administered by 1-h intravenous infusion at a dose of 50 mg every 24 h after a loading dose of 70 mg. Blood samples were collected before administration and at 1, 2, 6, 10, 16, and 24 h after the administration of caspofungin for at least 3 days. Plasma was separated by centrifugation of blood samples at 2,000 × g for 10 min at 4°C and stored at −80°C before analysis.
All plasma samples were detected by the liquid chromatography-tandem mass spectrometry (LC-MS/MS) method. First, 200 μL of acetonitrile-dissolved extraction working solution was added to 100 μL of plasma sample and mixed by vortexing at 3,000 rpm for 1 min. After centrifugation at 14,000 rpm for 15 min at 4°C, 2 μL supernatant was injected for LC-MS/MS analysis. The chromatographic column was an Agilent poroshell 120 SB-C18 (2.7 μm, 3.0 × 50 mm) column. The mobile phase was acetonitrile with 0.1% formic acid (A) and water with 0.1% formic acid (B). In the initial 0 to 0.5 min, the mobile phase was composed of 95% B and 5% A, and then within 0.5 to 1.5 min, the mobile phase B decreased linearly from 95% to 5% and remained unchanged for 1.5 to 2 min. Finally, it returned to 95% B and 5% A, and the entire analysis time was 5 min. The flow rate was 0.5 mL/min, and the column temperature was 35°C. A positive ion mode multiple reaction monitoring detection mode through electrospray ionization was performed with the transitions of m/z 547.3 → 538.2 for caspofungin and m/z 549.3 → 540.3 for caspofungin-d4 (IS). The linear range of the method was 0.4 to 25 mg/liter. The intraday and interday precision were 1.56 to 3.32% and 3.40 to 7.48%, respectively, and the deviation of accuracy was 0.96 to 2.21%.
We analyzed population PK data using the nonlinear mixed-effects modeling software NONMEM 7.3 (version 7.3, ICON plc, NY, USA). We employed one-, two-, and three-compartment pharmacokinetic models to fit the data and selected the most suitable basic structural model. Further, all potential covariates for caspofungin PK parameters reported in previous studies were analyzed. The covariates included demographic characteristics, renal function indices, liver function indices, HTx status, ECMO, and CRRT. Different covariate types have different variable models. Discrete covariates (such as sex) were modeled as follows. (1) Cij=Ctv,j×θjcov×enj
For continuous covariates (such as weight), an exponential model was selected with average covariates values and an adjusting factor. (2) Cij=Ctv,j×(cov/covave)^θj×e^ηj
In the above equations, Cij is the individual value. Ctv,j is the population typical value. cov in equation 1 is expressed as 0 or 1, cov in equation 2 is the value of the covariate, and θj is an impact factor. covave is the average value of a continuous covariate. Interindividual variability is shown as ηj, which is normally distributed with mean 0 and variance ω^2. Residual variability was modeled using a mixture of additive and proportional error models. […]

Setting [3] is: Control group (n = 31), median (range).
The mark [4] stands for this setting: Heart transplantation group (n = 27), median (range).
[5] abbreviates: population estimate, 58 patients, 414 plasma concentrations, 50 mg q24h i.v. after 70 mg loading dose, two-compartment model.

Structures are written as SMILES. Like-named read-outs stand apart in the source and are kept apart here.

As for `CC[C@H](C)C[C@H](C)CCCCCCCCC(=O)N[C@H]1C[C@@H](O)[C@@H](NCCN)NC(=O)[C@@H]2[C@@H](O)CCN2C(=O)[C@H]([C@H](O)CCN)NC(=O)[C@H]([C@H](O)[C@@H](O)c2ccc(O)cc2)NC(=O)[C@@H]2C[C@@H](O)CN2C(=O)[C@H]([C@@H](C)O)NC1=O` [caspofungin], the “target AUC/MIC value” with Candida glabrata is given as greater than 450; in the data set on Candida parapsilosis, > 1,185; in the data set on Candida albicans it was “greater than 865”. In data set [1], the protein binding rate is 97%. The results for the Vc in data set [2] (setting [3]) and in data set [2] (setting [4]) were 5.27 L and 3.14 L, respectively. In addition, the Vp was determined as 6.31 L in data set [2] (setting [3]) and 4.98 L in data set [2] (setting [4]). Also, the Q in data set [2] (control group, median) was determined as 2.85 L/h. Besides, the clearance in data set [2] (population estimate, 58 patients (27 HTx, 31 non-HTx), 414 plasma concentrations, 50 mg q24h 1-h i.v. infusion after 70 mg loading dose, LC-MS/MS, two-compartment model, read-out: CL (clearance), final model estimate (converted)) was 6.42 mL/min; in data set [2] (plasma, 50 mg, Control group (n = 31), median (range), read-out: CL (converted)), 7.5 mL/min; in data set [2] (plasma, 50 mg, Heart transplantation group (n = 27), median (range), read-out: CL (converted)) it was 5.83 mL/min. The Cmax in data set [2] (plasma, 50 mg, Control group, non-HTx critically ill patients (n = 31), median (range), 50 mg q24h 1-h i.v. infusion after 70 mg loading dose) is 7.89 µg/mL; in data set [2] (plasma, 50 mg, Heart transplantation group (n = 27), median (range), 50 mg q24h 1-h i.v. infusion after 70 mg loading dose) it was 11.7 µg/mL. In addition, the “Q (intercompartmental clearance), final model estimate” value in data set [2] (setting [5]) was 2.85 L/h. Besides, the “Vc (volume of distribution of the central compartment), final model estimate” value in data set [2] (setting [5]) is 4.27 L. The “Vp (volume of distribution of the peripheral compartment), final model estimate” value in data set [2] (setting [5]) was 6.01 L.

The values are drawn from paper PMC9116478, “Population Pharmacokinetics of Caspofungin and Dose Simulations in Heart Transplant Recipients” (Antimicrobial Agents and Chemotherapy, 2022).
